Laboratory results reported in PMC5578959, “Selective LRRK2 kinase inhibition reduces phosphorylation of endogenous Rab10 and Rab12 in human peripheral mononuclear blood cells” (Scientific Reports, 2017).

Columns and labels:
total LRRK2 = tested on: T1, total LRRK2; assay: Western Blot, cultured immune stimulated human PBMCs; format: cell-based; conditions: 100 nM; 24hr; PMA/INF-γ stimulated PBMCs, 3 DIV
T1 construct: human primary cells expressing endogenous levels of LRRK2; endogenous in cells; host or cells: human PBMCs from healthy donors

SGK,SGK2,SGK3 = assay: KiNativ profiling in human PBMCs; format: binding; conditions: Lys1
Method in brief: (§1)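 Target engagement in cells was measured using KiNativ chemistry following treatment of live human PBMCs with each compound at concentrations of 1 µM and 0.1 µM.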

MARK3,MARK4,QIK = assay: KiNativ profiling in human PBMCs; format: binding; conditions: Lys1
Method in brief: as §1

JAK2 domain2 = tested on: T2, JAK2 domain2; assay: KiNativ profiling in human PBMCs; format: binding; conditions: Activation Loop
T2 construct: JAK2 domain2; purchased ActivX Technologies (KiNativ)
Method in brief: as §1

Rab12-pSer106 = assay: Western Blot, HEK293 cells co-expressing HA-Rab12 and LRRK2 variants; format: cell-based, human; conditions: 100 nM; HEK293 co-overexpressing HA-Rab12 and LRRK2 WT, G2019S or R1441C
Protocol: Plasmids encoding various LRRK2 and Rab GTPase protein variants were transiently expressed in HEK293 cells using Lipofectamine®2000 according to the manufacturer’s instructions (Thermo Fisher Scientific, US).
HEK293 cells were plated at a density of 1 × 10^6 cells/well in 6-well plates pre-coated for 1 hr at 37 °C with poly-L-lysin. Subsequent to the transient transfection HEK293 cells were harvested using 1 mL cold Phosphate Buffered Saline (PBS) buffer (Invitrogen, California, US) and subsequently centrifuged at 800 g for 2 minutes. Cell pellets were resuspended and solubilized in 100 µL lysis buffer (50 mM Tris hydrochloride, 1 mM magnesium chloride, 1% Triton, 0.1% sodium dodecyl sulfate (SDS), pH 8.0) on ice for 20 minutes and then centrifuged at 20,000 g for 30 minutes at 4 °C. The solubilized crude cell lysate was size mobility separated by SDS-polyacrylamide gel electrophoresis (SDS-PAGE). LRRK2 was separated on a 3–8% Tris-Acetate gel (NuPAGE® Tris-Acetate Mini Gels, Life Technologies, Paisley, UK) and Rab10 and Rab12 were separated using a NuPAGE® Novex 4–12% Bis-Tris Gel (Invitrogen, California, US). An amount of 10 µg total protein was loaded in each well. Proteins were transferred to immobilon-FL PVDF membranes (Millipore, Billerica, US).

PKCh = tested on: T3, PKCh; assay: KiNativ profiling in human PBMCs; format: binding; conditions: Lys1
T3 construct: purchased ActivX Technologies (KiNativ)

ROCK1, ROCK2 = assay: KiNativ profiling in human PBMCs; format: binding; conditions: Lys2
TGFbR2 = tested on: T4, TGFbR2; assay: KiNativ profiling in human PBMCs; format: binding; conditions: Lys2
T4 construct: purchased ActivX Technologies (KiNativ)

MAP3K3 = tested on: T5, MAP3K3; assay: KiNativ profiling in human PBMCs; format: binding; conditions: Lys1
T5 construct: purchased ActivX Technologies (KiNativ)

MARK4 = tested on: T6, MARK4; assay: KiNativ profiling in human PBMCs; format: binding; conditions: Lys2
T6 construct: purchased ActivX Technologies (KiNativ)

CASK = tested on: T7, CASK; assay: KiNativ profiling in human PBMCs; format: binding; conditions: Lys1
T7 construct: purchased ActivX Technologies (KiNativ)

MAPKAPK3 = tested on: T8, MAPKAPK3; assay: KiNativ profiling in human PBMCs; format: binding; conditions: ATP Loop
T8 construct: purchased ActivX Technologies (KiNativ)
Method in brief: as §1

AMPKa1,AMPKa2 = assay: KiNativ profiling in human PBMCs; format: binding
Method in brief: as §1

AMPKa1 = tested on: T9, AMPKa1; assay: KiNativ profiling in human PBMCs; format: binding; conditions: ATP Loop
T9 construct: purchased ActivX Technologies (KiNativ)
Method in brief: as §1

PKCd = tested on: T10, PKCd; assay: KiNativ profiling in human PBMCs; format: binding; conditions: Lys2
T10 construct: purchased ActivX Technologies (KiNativ)

TEC = tested on: T11, TEC; assay: KiNativ profiling in human PBMCs; format: binding; conditions: Activation Loop
T11 construct: purchased ActivX Technologies (KiNativ)

FYN = tested on: T12, FYN; assay: KiNativ profiling in human PBMCs; format: binding; conditions: Lys1
T12 construct: purchased ActivX Technologies (KiNativ)

MAST4 = tested on: T13, MAST4; assay: KiNativ profiling in human PBMCs; format: binding; conditions: Lys2
T13 construct: purchased ActivX Technologies (KiNativ)

MARK3, MARK4 = assay: KiNativ profiling in human PBMCs; format: binding; conditions: Lys1
CK1a = tested on: T14, CK1a; assay: KiNativ profiling in human PBMCs; format: binding; conditions: Lys2
T14 construct: purchased ActivX Technologies (KiNativ)

PHKg2 = tested on: T15, PHKg2; assay: KiNativ profiling in human PBMCs; format: binding; conditions: Lys1
T15 construct: purchased ActivX Technologies (KiNativ)

GPRK5 = tested on: T16, GPRK5; assay: KiNativ profiling in human PBMCs; format: binding; conditions: Lys2
T16 construct: purchased ActivX Technologies (KiNativ)

Cc1cccc(-c2cc(Nc3ccn(C)n3)nc3[nH]cc(C#N)c23)c1 [Lu AF58786]
total LRRK2 protein levels (total LRRK2): significantly lowers | Inhibition (SGK,SGK2,SGK3; 0.1µM): 7.0% | Inhibition (SGK,SGK2,SGK3; 1µM): 0.243% | Inhibition (MARK3,MARK4,QIK; 0.1µM): 3.0% | Inhibition (MARK3,MARK4,QIK; 1µM): 5.7% | Inhibition (JAK2 domain2; 0.1µM): 16.1% | Inhibition (JAK2 domain2; 1µM): -3.5% | phosphorylation of Rab12 (pSer106) (Rab12-pSer106): statistically significant reduction

Cn1cc(-c2c[nH]c3ncnc(N4CCOCC4)c23)cc1C#N [PFE-360]
% Inhibition (PKCh; 0.1µM): -10.3% | % Inhibition (PKCh; 1µM): -11% | % Inhibition (ROCK1, ROCK2; 0.1µM): -31.8% | % Inhibition (ROCK1, ROCK2; 1µM): -10.7% | % Inhibition (TGFbR2; 0.1µM): -5.4% | % Inhibition (TGFbR2; 1µM): -16.3% | % Inhibition (MAP3K3; 0.1µM): 18.3% | % Inhibition (MAP3K3; 1µM): 16.1% | % Inhibition (MARK4; 0.1µM): 14.8% | % Inhibition (MARK4; 1µM): -6.1% | % Inhibition (CASK; 0.1µM): 4.6% | % Inhibition (CASK; 1µM): 8.6% | % Inhibition (MAPKAPK3; 0.1µM): -5.1% | % Inhibition (MAPKAPK3; 1µM): -8.3% | % Inhibition (AMPKa1,AMPKa2; 0.1µM, Lys1): 0.8% | % Inhibition (AMPKa1,AMPKa2; 0.1µM, Lys2): -17.7% | % Inhibition (AMPKa1,AMPKa2; 1µM, Lys1): -2.7% | % Inhibition (AMPKa1,AMPKa2; 1µM, Lys2): 7.4% | % Inhibition (AMPKa1; 0.1µM): -1% | % Inhibition (AMPKa1; 1µM): 4% | % Inhibition (PKCd; 0.1µM): 3.5% | % Inhibition (PKCd; 1µM): -0.6% | % Inhibition (TEC; 0.1µM): -3.8% | % Inhibition (TEC; 1µM): 9.2% | % Inhibition (FYN; 0.1µM): -23.9% | % Inhibition (FYN; 1µM): -19% | % Inhibition (MAST4; 0.1µM): -5.7% | % Inhibition (MAST4; 1µM): -21.4% | % Inhibition (MARK3, MARK4; 0.1µM): 0.7% | % Inhibition (MARK3, MARK4; 1µM): 3.6% | % Inhibition (CK1a; 0.1µM): -17.4% | % Inhibition (CK1a; 1µM): 4.6% | % Inhibition (PHKg2; 0.1µM): -21.5% | % Inhibition (PHKg2; 1µM): -15.8% | % Inhibition (GPRK5; 0.1µM): 19.3% | % Inhibition (GPRK5; 1µM): 1.5%
